row,melting point [°C],Compound
1,250 to 252,CN(C)C(=O)c1nc(-c2cccnc2)nc2c1[nH]c(=O)n2-c1ccccc1
2,172 to 174,Cc1c(-c2ccccc2)c(C2=CCNC2)c2oc(C3CC3)nc2c1C#N
3,189 to 190,CCN(c1cc(C)c(C)c2cc(-c3ncc(CO)s3)[nH]c12)S(=O)(=O)c1cccs1
4,235 to 236,c1ccc2c(c1)nc(Nc1ccc3cn[nH]c3c1)c1nc(C3CCCC3)[nH]c12
5,265 to 267,O=c1[nH]c2cccnc2n1-c1ccncc1
6,80 to 82,COc1ccc(O)c(CSc2ccccc2CO)c1
7,151 to 153,CC1(C)CN=C2N(C1)c1ccc(C(=O)O)cc1C21OCCCO1
8,> 250,CCCCCc1cc2c(nc(O)n2CC2CCOCC2)c(N)n1
9,198 to 199,CCOc1c(C(=O)O)cnc2c1cnn2CC
10,85 to 90,COc1cc(O)c(C(=O)c2ccccc2F)c(Cl)c1
11,172 to 174,O=C(CCN1CCN(c2ccccc2)CC1)Nc1ccc(O)cc1
12,54 to 55,O=C1CCC(c2ccc(Cl)c(Cl)c2)O1 (stereo not drawn)
13,75 to 78,Clc1ccccc1C1=NOC(c2ccccc2Cl)N1 (stereo not drawn)
14,147 to 158,CC(=O)OC1CSC(Oc2ccc3ccn(C(=O)OC(C)(C)C)c3c2)C(OC(C)=O)C1OC(C)=O (stereo not drawn)
15,191 to 194,O=C(c1ccc(-c2ccccc2)cc1Cl)N1CCCC(Cc2nnn[nH]2)c2ccccc21 (stereo not drawn)
16,146 to 148,COc1ccc([C@@H]2O[C@H]2C(=O)O[C@@H]2CCCC[C@H]2c2ccccc2)cc1
17,99 to 101,COC(=O)c1ccc(Cl)cc1NC(=O)CSc1ccccc1Br
18,165,NS(=O)(=O)c1cccc(-c2cccc(-c3nc(-c4ccc(Cl)cc4)cc(C(F)(F)F)n3)c2)c1
19,289 to 291,O=C(O)c1cccc(-n2cnc3cc(-c4ccccc4)ccc32)c1
20,62 to 75,COC(=O)c1c(O)cc(C(F)(F)F)nc1C(F)(F)F
21,140 to 141,CCOc1cc(C(C)C)c2c(c1)S(=O)(=O)N(COC(=O)c1c(Cl)cccc1Cl)C2=O
22,178 to 180,CCCOc1ccccc1-c1nc2cc3ncn(CC(C)C4CCCCC4)c3cc2c(=O)[nH]1 (stereo not drawn)
23,116,NCCCc1csc(N=C2NCCCN2)n1
24,169 to 170,COc1cc(CCCCC2OC(=O)NC2=O)ccc1OCc1coc(/C=C/c2ccc3ccccc3c2)n1 (stereo not drawn)
25,218 to 220,CC(c1oc2ccccc2c(=O)c1-c1cccc(F)c1)n1nc(-c2ccc(Oc3ccccc3)cc2)c2c(N)ncnc21 (stereo not drawn)

row,melting point [°C],Compound
1,71,COC=C(C(=O)OC)c1ccccc1CSc1ccccc1
2,> 300,NC(=O)c1cc(-c2ccncc2)c[nH]c1=O
3,203 to 205,COC(=O)c1ccc(C(=O)NC(C)C)cc1S(N)(=O)=O
4,129 to 134,O=c1c(CO)cc(-c2ccc3c(c2)CCO3)nn1Cc1ccc(Cl)cc1
5,118 to 120,O=C(OCc1ccccc1)n1ccc2c(O)cccc21
6,210 to 213,O=C(c1c(F)cccc1F)N1COCN(c2ccc(S(=O)(=O)C(F)F)cc2F)C1=O
7,188 to 190,Cc1c(C(=O)O)oc2cc(SC(=O)N(C)C)ccc12
8,93 to 94,COc1cc(-c2cc(-c3ccc(-c4c(Cc5ccccc5)sc5ccccc45)cc3)ccc2OCC(=O)O)cc(OC)c1OC
9,104 to 106,O=C1CCc2ccc(OCCCCCl)cc2N1
10,49 to 50,CC(C)N(CCCN1C(=O)C(=O)c2ccccc21)C(C)C
11,247 to 248,CCCS(=O)(=O)c1ccc(NS(=O)(=O)c2cccs2)c2[nH]c(C(=O)O)cc12
12,234 to 236,COc1ccc2cc(CC(N)=O)ccc2c1
13,93 to 95,CCC(=O)C(Oc1cc(C#N)cc(C#N)c1)C(=O)OC (stereo not drawn)
14,83 to 84,CC(CC#N)CN1C(=O)c2ccccc2S1(=O)=O (stereo not drawn)
15,225 to 227,CC12CCC(C1)C1(C)Oc3ccc(C(=O)/C=C/c4ccc(C(=O)O)cc4)cc3C21C (stereo not drawn)
16,113 to 114,COc1ccc2c(c1)C(=O)c1c-2c(NCCCN(C)C)nc2ccccc12
17,165 to 166,COc1ccc(NC(=O)N(Cc2ccccn2)C2CCCCCC2)c(NC(=O)c2cc(C(C)(C)C)c(O)c(C(C)(C)C)c2)c1
18,210 to 211,CCc1c(OC)nc2nc(-c3nnc(C(F)(F)F)o3)cn2c1C
19,157 to 158,O=S(=O)(NCCCCOc1ccc(-n2ccnc2)cc1)c1ccc2ccccc2c1
20,168 to 170,COC(=O)C(Cc1ccccc1)NC(=O)C(N)(CC(=O)O)NC(=O)C(C)C (stereo not drawn)
21,58,CCOC(=O)C(C)(Cc1cccnc1)S(=O)(=O)c1ccc(OC)cc1 (stereo not drawn)
22,130 to 132,CN1CS(=O)c2cccc(Cl)c21 (stereo not drawn)
23,225 to 227,NCc1ccc(C2CCN(c3c(F)c(N)c4c(=O)c(C(=O)O)cn(C5CC5)c4c3F)C2)cc1 (stereo not drawn)
24,42,OCc1cc(I)ccc1F
25,159,CN1C(=O)CC[C@]2(C)c3ccc(-c4cccc5ccccc45)cc3CC[C@@H]12

row,melting point [°C],Compound
1,165 to 167,O=C(NCc1cccnc1)c1ccc2n1Cc1ccccc1N(C(=O)c1ccc(-c3ccccc3C=NO)cc1)C2
2,169 to 176,Clc1nccc(Oc2ccc3[nH]ccc3c2)n1
3,125 to 128,CCCn1ccnc(S(=O)(=O)Cc2ccc(Cl)cc2)c1=O
4,122 to 124,CC(C)(C)C(O)C(=Cc1ccc2ccccc2c1)n1cncn1 (stereo not drawn)
5,120 to 123,CCOC(=O)c1cnc2c(NC(=O)c3c(Cl)cccc3Cl)cccc2c1CSc1ncc[nH]1
6,249 to 251,O=C(Nc1ccc(Cl)c(Cl)c1)c1cc(Br)ccc1O
7,65 to 67,CCCc1c(OCC2(Sc3ccc(C(=O)CCC(=O)O)cc3)CCCCC2O)ccc(C(C)=O)c1O (stereo not drawn)
8,54,CN(C(=O)COc1nnc(C(F)(F)F)s1)c1ccccc1
9,95 to 98,c1ccc([C@H]2OC[C@@H](OCc3ccccn3)CO2)cc1
10,238 to 240,N#Cc1cnn2c(-c3cccc(Cl)c3)ccnc12
11,162 to 164,O=C(Nc1ccc2cn[nH]c2c1)C(=O)N1CCC(Cc2ccc(F)cc2)CC1
12,125,c1ccc(CN2CCN(c3nc4c(c(N5CCOCC5)n3)SCCC4)CC2)cc1
13,72.5 to 78.6,O=c1c(Cc2cccnc2)cn2c3ccccc3c3cc(OCCCO)cc1c32
14,171 to 176,CNCCn1nc2c3c(c(Cl)ccc31)C(=O)c1c(OCc3ccccc3)ccc(OCc3ccccc3)c1-2
15,287,C1=CC(n2nc(-c3ccc4ccccc4c3)cc2-c2ccccc2)(n2nc(-c3ccc4ccccc4c3)cc2-c2ccccc2)CC=C1c1ccccc1
16,178 to 179,COc1cc2c(cc1C(O)COc1ccc(C(=O)O)c(O)c1)C(C)(C)CCC2(C)C (stereo not drawn)
17,122 to 123,CCC(=O)SCC(CC(=O)c1ccc(Br)cc1)C(=O)O (stereo not drawn)
18,169 to 171,CC1Cc2c(N=C=O)ccc(Cl)c2O1 (stereo not drawn)
19,70 to 71.5,CC(C)(SCC(N)=O)c1ccc2c(c1)OCO2
20,> 300,O=c1c2c(-c3ccc(O)cc3)n[nH]c2c2cccnc2n1-c1ccccc1
21,166,Nc1ccn([C@@H]2O[C@H](CO)[C@@H](O)/C2=C\F)c(=O)n1
22,137,Nc1cc(Oc2cccc(O)c2)ccc1[N+](=O)[O-]
23,172 to 174,CC(=O)CCc1nc2c(N)nc3ccccc3c2n1CC(C)C
24,175 to 176,CCCCc1nc2c(N)nc3cccnc3c2n1CCN
25,92.5,FC(F)c1cccc(C=C2c3ccccc3CCc3ccccc32)c1

row,melting point [°C],Compound
1,70 to 73,S=C1CNCCN1Cc1ccccc1
2,198,CN1C(=O)C(c2c[nH]c3ncccc23)=C(c2cn(S(=O)(=O)c3ccccc3)c3ncccc23)C1=O
3,61 to 70,COc1ccnc(C(=O)N[C@H]2COC[C@H](OCCC(C)C)[C@@H](OCCC(C)C)[C@H](C)OC2=O)c1O
4,172 to 174,CC(=O)NC[C@H]1CN(c2cc(F)c(N3CCN(CCO)CC3)c(F)c2)C(=O)O1
5,75,CCOC(=O)c1c(NCCCN(C)C)c2ccc(C)nc2n(CC)c1=O
6,199 to 201,CC(=O)Oc1ccc([C@@H]2SC(C)(C)[C@H](C(=O)O)N2C(C)=O)cc1
7,109 to 114,CC(C)(C)NC(=O)[C@@H]1CCCN1C(=O)[C@@H](O)[C@H](Cc1ccccc1)NC(=O)[C@H](CC(N)=O)NC(=O)COC1CCC(NC(=O)OCc2ccccc2)CC1 (stereo partly drawn)
8,156 to 161,CCc1nn(C2CCCC2)c(NC(=O)c2ccnc3ccccc23)c1C#N
9,133 to 143,CCCCc1nc2cccc(C(=O)OC)c2c(=O)n1Cc1ccc(-c2ccccc2-c2nnn[nH]2)cc1
10,270 to 273,COc1cc2c(=O)n(CC3CCCO3)c3c4cc5c(cc4ncc3c2cc1OC)OCO5 (stereo not drawn)
11,151 to 153,CCOC(=O)c1cnc(N2CCN(Cc3ccccc3)CC2)nc1O
12,98 to 99,COC(=O)c1cccc2c1CC(C)(C)CC2N(C)S(C)(=O)=O (stereo not drawn)
13,134 to 136,Cc1cc(Cl)nn2cnnc12
14,237 to 240,CCc1cc2c([nH]c1=O)c(C)cc1cc(CBr)oc12
15,146 to 149,CC(=O)NCCC1CCc2ccc3nn(C)c(C)c3c21 (stereo not drawn)
16,165 to 168,O=C(O)CC(CSc1nc2ccccc2[nH]1)C(=O)O (stereo not drawn)
17,144 to 146,CC(=O)c1cc(N2CCOCC2)ccc1NC(=O)c1ccccc1OCc1ccccc1
18,96,CCOC(=O)C1=CC(=O)C2(C(=O)c3ccc(OC)cc3)OC2O1 (stereo not drawn)
19,145 to 146,COC(=O)c1cc(-c2nc(COc3ccc(CO)cc3OC)c(C)o2)ccc1C
20,164 to 166,COc1cc(C(=O)c2cn(C)c(-c3cn(C)c4ccccc34)n2)cc(OC)c1OC
21,125 to 126,CCOC(=O)C1=C(C)NC(C)=C(C(=O)OCC)C1c1cccc(Cl)c1Cl
22,272 to 275,Cc1cc(-c2ccc(C(F)(F)F)cc2)nc(-c2ccc(C(=O)O)cc2)n1
23,212 to 214,CC(C)COC(=O)Nc1ccc(C2=CCS(=O)CC2)c(F)c1 (stereo not drawn)
